Data from PMC8121435, “Cork-in-bottle mechanism of inhibitor binding to mammalian complex I” (Science Advances, 2021).
Values joined by “and” are separate entries in the source; they are usually repeats but may differ in a detail not shown here. Equal values may be shown once.

Assays:
Format in all cases: biochemical
mouse complex I = molecular target: T1, mouse complex I (Mus musculus, UniProt P03888+Q91WD5+Q9DC70); assay: Extent of inhibition of isolated IACS-2858-bound mouse complex I prepared for cryo-EM; conditions: isolated inhibitor-bound enzyme after size exclusion, initial rate versus control without inhibitor; cryo-EM sample
T1 construct: from tissue; host or cells: mouse (C57BL/6) heart mitochondria
Experimental: Complex I inhibited by IACS-2858 was prepared by a method adapted from that of Bridges et al. ([23]) for preparing mouse complex I inhibited by piericidin A1. C57BL/6 mice were euthanized by cervical dislocation in accord with the UK Animals (Scientific Procedures) Act 1986 (PPL: P6C97520A, approved by the local ethics committee and the UK Home Office), and mitochondrial membranes were prepared from heart tissue as described previously ([20]). Starting from membranes containing ~40 mg of total protein, the proteins were solubilized from the membranes by addition of 1% DDM (Glycon), and the mixture was centrifuged. […] The level of inhibition achieved was determined by comparing the initial rates of catalysis by the control and inhibited samples in buffer containing 20 mM tris-HCl (pH 7.5 at 32°C), 0.15% soy bean asolectin (Avanti Polar Lipids), and 0.15% CHAPS (Merck Chemicals Ltd.), using 200 μM dQ, with catalysis initiated by 200 μM NADH and monitored at 340 to 380 nm (ε = 4.81 mM^−1 cm^−1). […] The concentration of the peak fraction for the inhibited protein, eluting at ~1.65 ml, was estimated using a NanoDrop ultraviolet-visible spectrophotometer [ε280 = 0.2 (mg ml^−1)^−1], and the level of inhibition of the final eluted IACS-2858–treated sample was determined as above. […]

[1] = molecular target: T2, complex I in mitochondrial membranes (Yarrowia lipolytica, UniProt Q9B6E8+Q9UUT7+Q9UUU1); assay: NADH oxidation in Y. lipolytica mitochondrial membranes
T2 sequence (Q9B6E8 1-341): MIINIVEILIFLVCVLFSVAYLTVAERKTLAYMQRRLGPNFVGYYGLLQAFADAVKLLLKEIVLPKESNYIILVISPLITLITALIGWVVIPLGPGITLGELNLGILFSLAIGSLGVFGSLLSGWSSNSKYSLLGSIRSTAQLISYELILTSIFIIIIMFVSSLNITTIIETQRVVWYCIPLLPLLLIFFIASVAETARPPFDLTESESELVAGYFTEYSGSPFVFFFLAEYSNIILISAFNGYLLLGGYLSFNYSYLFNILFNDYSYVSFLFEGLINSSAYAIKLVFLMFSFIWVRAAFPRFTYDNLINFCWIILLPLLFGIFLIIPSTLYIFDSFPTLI
T2 sequence (Q9UUU1 22-466): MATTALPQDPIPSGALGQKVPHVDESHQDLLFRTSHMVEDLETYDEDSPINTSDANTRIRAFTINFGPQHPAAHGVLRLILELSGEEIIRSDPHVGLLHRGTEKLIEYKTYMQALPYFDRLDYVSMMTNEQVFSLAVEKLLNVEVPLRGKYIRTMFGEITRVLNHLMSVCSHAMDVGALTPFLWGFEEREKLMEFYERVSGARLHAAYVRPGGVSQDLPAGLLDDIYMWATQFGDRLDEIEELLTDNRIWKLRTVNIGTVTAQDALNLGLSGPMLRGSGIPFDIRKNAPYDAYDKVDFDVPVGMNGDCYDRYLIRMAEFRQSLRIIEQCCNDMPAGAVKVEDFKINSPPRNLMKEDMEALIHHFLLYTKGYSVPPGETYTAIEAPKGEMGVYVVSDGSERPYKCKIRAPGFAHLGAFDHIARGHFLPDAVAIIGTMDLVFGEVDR
T2 sequence (Q9UUT7 28-210): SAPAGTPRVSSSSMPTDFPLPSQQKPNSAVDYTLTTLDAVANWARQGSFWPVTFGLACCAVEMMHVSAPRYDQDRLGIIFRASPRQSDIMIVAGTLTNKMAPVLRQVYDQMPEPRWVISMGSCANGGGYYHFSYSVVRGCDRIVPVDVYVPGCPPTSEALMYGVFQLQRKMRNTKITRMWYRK
Experimental: (§1) All catalytic activity assays were conducted at 32°C in 96-well plates using a Molecular Devices Spectramax 384 plus plate reader. Catalysis was initiated by addition of 200 μM NADH and monitored at 340 and 380 nm (ε340–380 = 4.81 mM^−1 cm^−1). Linear rates were measured for all assays, inhibitors were added from dimethyl sulfoxide stock solutions as required, and inhibitor-insensitive rates (using either 1 μM piericidin A or 1.4 μM IACS-2858) were subtracted from each measured rate. Membrane samples were prepared as described previously ([17], [20], [59], [60]), diluted to 20 μg ml^−1 in 10 mM tris-SO4 (pH 7.5) and 250 mM sucrose, and supplemented with 3 μM horse heart cytochrome c (except for P. denitrificans, for which the activity is unaffected by the addition). Mouse, bovine, and yeast (Y. lipolytica) complex I were purified as described previously ([17], [20], [59]); diluted to 0.5 nM in 20 mM tris-HCl (pH 7.5), 0.15% asolectin, and 0.15% CHAPS; and assayed using either 200 μM dQ or 200 μM ubiquinone-1 (Sigma-Aldrich). Complex I was purified from P. denitrificans strain Pd1222 ([61]) and provided by O. D. Jarman (MRC Mitochondrial Biology Unit, University of Cambridge); it was assayed likewise but in 10 mM MES-HCl (pH 6.5), 25 mM NaCl, and 2 mM CaCl2. […]

complex I in bovine SMPs = molecular target: T3, complex I in bovine SMPs (Bos taurus, UniProt P03887+P17694+P42026); assay: Forward electron transport (NADH oxidation) in bovine heart submitochondrial particles; conditions: NADH oxidation rate, ± SE
T3 construct: Complex I from bovine heart were prepared; from tissue; host or cells: bovine heart mitochondria
Experimental: as §1

Question: With CS(=O)(=O)C1CCN(c2cccc(Cn3cc(-c4nc(-c5ccc(OC(F)(F)F)cc5)no4)ccc3=O)c2)CC1 [IACS-2858, 1-(3-(4-(Methylsulfonyl)piperidin-1-yl)benzyl)-5-(3-(4-(trifluoromethoxy)phenyl)-1,2,4-oxadiazol-5-yl)pyridin-2(1H)-one] as the compound, how does the extent of inhibition (mouse complex I) read?
Answer: Its extent of inhibition is 81 ± 5% and 81.3 ± 4.7%.

Question: What about the IC50 [1] of the same compound?
Answer: The IC50 was roughly 7.2 µM.

Question: And the IC50 (complex I in bovine SMPs)?
Answer: The IC50 was 0.0064 ± 0.0002 µM.
